Assay results published in PMC9078399, “Discovery of N-cyclobutylaminoethoxyisoxazole derivatives as novel sigma-1 receptor ligands with neurite outgrowth efficacy in cells” (RSC Advances, 2018).
Entries after “also recorded” stand apart in the source; their conditions may differ.

Legend:
σ1 receptor [1] = molecular target: σ1 receptor; parameters: method as in PMID 21278085, PMID 15170821, PMID 18647636, PMID 22935988, PMID 21967807; details: representative σ1 receptor ligands, Fig. 1; cited from earlier work
σ2 receptor [2] = molecular target: T1, σ2 receptor (Rattus norvegicus, UniProt Q5U3Y7); test: Radioligand binding at σ2 receptor ([3H]-DTG, NIMH PDSP); details: for Ki: [3H] DTG, PC12 cells, mean ± SEM, three independent experiments; for Increase of binding affinity for σ2 receptor relative to compound 7: compared with parent compound 7
T1 construct: (b) σ2 receptor, [^3H]-DTG, PC-12 cells; endogenous in cells; host or cells: PC-12 cells
T1 sequence (Q5U3Y7 1-176): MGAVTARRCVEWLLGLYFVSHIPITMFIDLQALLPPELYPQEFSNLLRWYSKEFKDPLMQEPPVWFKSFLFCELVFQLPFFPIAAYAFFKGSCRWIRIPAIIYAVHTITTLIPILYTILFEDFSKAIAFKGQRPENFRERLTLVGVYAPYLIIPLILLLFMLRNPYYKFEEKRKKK
Source text: (§1) In this study, [^3H] pentazocine and [^3H]DTG (6) were used as the radioligands at σ1 and σ2 receptors. Firstly, we examined the effects of changing the substituents on the benzene ring. […] Mono-halogen substitution on the benzene ring exemplified by compounds 17–20 generally retained affinity for σ1 receptor compared with compound 7. […] The derivatives 21–25 also maintained similar high affinities for the σ1 receptor upon incorporation of two halogen atoms on the benzene ring. However, this is also accompanied with higher binding affinity to the σ2 receptor. […]. Next, we examined the effects of removing the methyl group on the basic nitrogen atom. […] […]. […] The results for the secondary amines 28 and 29 indicate that the hydrogen bond donor on basic nitrogen atom was beneficial for increased binding affinity to the σ1 receptor.
(§2) Radioligand competition studies were carried out by the National Institute of Mental Health's Psychoactive Drug Screening Program, Contract #HHSN-271-2008-00025-C (NIMH PDSP). The general procedures are listed as follows:
(§3) All the test compounds solution (1 mg mL^−1) were prepared by dissolving in DMSO or buffer solvent (50 mM Tris–HCl, pH = 8.0). The filter-mats were presoaked in 0.5% aqueous polyethyleneimine solution for 2 h at rt before use. All binding experiments were carried out in poly-L-lysine-coated 96-well plate and the final test concentration (50 μM, 5 μM, 1.5 μM, 500 nM, 150 nM, 50 nM, 15 nM, 5 nM, 1.5 nM, 0.5 nM, 0.05 nM) were prepared by addition of Tris–HCl solution (50 mM, pH = 8.0). The following specific radioligands and tissue source were used: (a) σ1 receptor, [^3H]-(+)-pentazocine, Guinea pig brain homogenate; (b) σ2 receptor, [^3H]-DTG, PC-12 cells. 100 μL of corresponding radioligand solution, 100 μL test compound solution and 50 μL of the respective receptor preparation into each well of the plate (total volume 250 μL). During the incubation, the plates were shaken at a speed of 500–600 rpm at the specified temperature (σ1 receptor, 37 °C, 150 min; σ2 receptor, rt, 120 min). The incubation was followed by a rapid vacuum filtration through Whatman GF/B glass filters, and the filtrates were washed twice with 10 mL of cold buffer and transferred to the 6 mL scintillation vials. EcoScint scintillation fluid (4.0 mL) was added, and the radioactivity bound was measured using a Beckman LS 6500 liquid scintillation counter. All experiments were performed at least three times.
(§4) For experimental details please refer to the PDSP website http://pdsp.med.unc.edu/.[28]

σ1 receptor [3] = molecular target: T2, σ1 receptor (Cavia porcellus, UniProt Q60492); test: Radioligand binding at σ1 receptor ([3H]-(+)-pentazocine, NIMH PDSP); parameters: species or system Guinea pig; details: for Ki: [3H]-(+)-pentazocine, Guinea pig brain homogenate, mean ± SEM, three independent experiments; for Selectivity (Ki σ2/Ki σ1): ratio of Ki σ2 to Ki σ1
T2 construct: σ1 receptor, [^3H]-(+)-pentazocine, Guinea pig brain homogenate; from tissue; host or cells: Guinea pig brain homogenate
Source text: as §1, §2, §3, §4

[4] = molecular target: DAT: dopamine transporter (Homo sapiens, UniProt Q01959); test: Radioligand binding at DAT ([3H] WIN35428)
Method: (§5) In order to exclude the potential interference of other receptor pathways to the observed neuritogenesis efficacy, we assessed the binding affinities of compounds 7, 18, 22, 24, 25, 28 and 29 at the biogenic amine transporters (NET, DAT, and SERT).
as §2, §4

N1E-115 neuronal cells = test: Neurite outgrowth in N1E-115 cells; format: cell-based, mouse; details: 10 μM in DMSO, four days, vs. vehicle (DMSO)
Method: Following the radioligand binding studies and CNS MPO calculations, all of the synthesized derivatives were further tested in cellular neuritogenesis studies. In this study, N1E-115 neuronal cells were used as a screening platform for assessing the neuritogenesis effects of candidate compounds.[31,32] All the derivatives and positive control (compound 7 and RC-33) were assessed at 10 μM concentration in DMSO, and vehicle group using DMSO alone.
N1E-115 cells, the mouse neuroblastoma cell lines, were obtained from the American Type Culture Collection (ATCC, Manassas, VA, USA). Undifferentiated N1E115 cells were cultured in DMEM complete medium with 10% fetal bovine serum, 100 U mL^−1 of penicillin, and 100 μg mL^−1 of streptomycin and maintained at 37 °C in a humidified incubator supplemented with 5% CO2. N1E-115 cells were seeded at a density of 1 × 10^4 cells per mL on poly-L-lysine-coated 96-well plates and grown with DMSO or different tested compounds (10 μM) in DMSO solution for four days. Four days after incubation, morphometric analysis was performed on digitized images of live cells taken under phase contrast illumination with an inverted microscope linked to a camera. Images of five fields per well were taken with an average of 100 cells per field. Cells that had at least one neurite with a length that was twice as long as the body diameter were expressed as a percentage of the total cells in the field. The counting was performed in a blinded manner. All experiments were performed at least five times.

[5] = molecular target: NET: norepinephrine transporter (Homo sapiens, UniProt P23975); test: Radioligand binding at NET ([3H] nisoxetine)
Method: as §5, §2, §4

σ2 receptor [6] = molecular target: σ2 receptor; parameters: method as in PMID 21278085, PMID 15170821, PMID 18647636, PMID 22935988, PMID 21967807; details: representative σ1 receptor ligands, Fig. 1; cited from earlier work

DAT: dopamine transporter, sequence (Q01959 whole entry): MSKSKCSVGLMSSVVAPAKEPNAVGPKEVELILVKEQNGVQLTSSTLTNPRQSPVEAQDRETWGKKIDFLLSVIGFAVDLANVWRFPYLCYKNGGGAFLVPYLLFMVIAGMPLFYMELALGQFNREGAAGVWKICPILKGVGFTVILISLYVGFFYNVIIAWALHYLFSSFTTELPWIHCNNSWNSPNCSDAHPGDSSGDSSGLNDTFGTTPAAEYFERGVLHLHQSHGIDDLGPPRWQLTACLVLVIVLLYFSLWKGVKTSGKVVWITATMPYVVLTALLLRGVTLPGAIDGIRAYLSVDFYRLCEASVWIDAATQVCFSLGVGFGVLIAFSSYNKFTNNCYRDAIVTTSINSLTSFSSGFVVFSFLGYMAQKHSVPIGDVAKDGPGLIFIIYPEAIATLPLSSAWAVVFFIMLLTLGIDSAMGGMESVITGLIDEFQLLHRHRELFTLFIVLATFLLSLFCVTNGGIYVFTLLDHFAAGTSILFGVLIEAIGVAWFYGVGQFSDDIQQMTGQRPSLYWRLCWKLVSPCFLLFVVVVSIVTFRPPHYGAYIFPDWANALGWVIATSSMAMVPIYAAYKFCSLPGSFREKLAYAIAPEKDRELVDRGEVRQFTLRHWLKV
T2 sequence (Q60492 whole entry): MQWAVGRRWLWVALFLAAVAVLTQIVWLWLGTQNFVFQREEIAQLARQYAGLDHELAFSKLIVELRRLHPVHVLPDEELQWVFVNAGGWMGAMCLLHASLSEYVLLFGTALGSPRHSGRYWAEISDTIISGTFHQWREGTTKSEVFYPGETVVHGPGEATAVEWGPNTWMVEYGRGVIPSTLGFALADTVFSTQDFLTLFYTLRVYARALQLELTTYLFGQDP
NET: norepinephrine transporter, sequence (P23975 whole entry): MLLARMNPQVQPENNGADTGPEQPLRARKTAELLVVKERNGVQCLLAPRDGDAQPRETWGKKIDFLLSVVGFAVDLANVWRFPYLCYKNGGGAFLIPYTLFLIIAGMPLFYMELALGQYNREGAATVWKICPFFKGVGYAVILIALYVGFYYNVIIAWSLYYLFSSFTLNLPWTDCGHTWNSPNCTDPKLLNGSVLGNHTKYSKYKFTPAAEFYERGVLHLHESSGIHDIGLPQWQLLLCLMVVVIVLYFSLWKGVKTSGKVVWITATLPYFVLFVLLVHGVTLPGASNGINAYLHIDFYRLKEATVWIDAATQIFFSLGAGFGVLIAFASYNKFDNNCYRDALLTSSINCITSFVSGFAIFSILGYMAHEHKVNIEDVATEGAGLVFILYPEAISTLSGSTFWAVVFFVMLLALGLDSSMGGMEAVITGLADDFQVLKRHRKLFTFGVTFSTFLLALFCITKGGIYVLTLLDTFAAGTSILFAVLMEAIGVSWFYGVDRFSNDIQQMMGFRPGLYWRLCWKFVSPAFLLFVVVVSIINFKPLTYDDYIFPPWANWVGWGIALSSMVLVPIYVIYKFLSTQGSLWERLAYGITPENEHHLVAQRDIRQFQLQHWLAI

| SMILES | Ki (σ1 receptor [1]) | Ki (σ2 receptor [2]) | Ki (σ1 receptor [3]) | Selectivity (Ki σ2/Ki σ1) (σ1 receptor [3]) | Ki [4] | Neurite outgrowth (neuritogenesis) effect (N1E-115 neuronal cells) | Ki [5] | Increase of binding affinity for σ2 receptor relative to compound 7 (σ2 receptor [2]) | Decrease of affinity for σ1 receptor relative to compound 7 (σ1 receptor [3]; compared with parent compound 7) | Ki (σ2 receptor [6]) |
| --- | --- | --- | --- | --- | --- | --- | --- | --- | --- | --- |
| C[C@H](CCN1CCCCC1)c1ccc(-c2ccccc2)cc1 [(R)-RC-33] | 1.8 nM |  |  |  |  |  |  |  |  |  |
| CN(CCOc1cc(COc2cccc(F)c2)on1)C1CCC1.Cl [Compound 17, N-(2-((5-((3-Fluorophenoxy)methyl)isoxazol-3-yl)oxy)ethyl)-N-methylcyclobutanamine hydrochloride] |  | 91.5 ± 7.5 nM | 1.9 nM | 48 |  |  |  |  |  |  |
| CN(CCOc1cc(COc2ccc(F)cc2)on1)C1CCC1.Cl [Compound 18, N-(2-((5-((4-Fluorophenoxy)methyl)isoxazol-3-yl)oxy)ethyl)-N-methylcyclobutanamine hydrochloride] |  | 78.5 ± 19.5 nM | 0.9 ± 0.1 nM | 87 | 5630 nM | preferable neurite outgrowth effects compared to the parent compound 7 and positive control RC-33; also recorded: significant neuritogenesis effects |  |  |  |  |
| CN(CCOc1cc(COc2cccc(Br)c2)on1)C1CCC1.Cl [Compound 19, N-(2-((5-((3-Bromophenoxy)methyl)isoxazol-3-yl)oxy)ethyl)-N-methylcyclobutanamine hydrochloride] |  | 105 ± 21 nM | 0.8 ± 0.1 nM | 131 |  |  |  |  |  |  |
| CN(CCOc1cc(COc2ccc(Br)cc2)on1)C1CCC1.Cl [Compound 20, N-(2-((5-((4-Bromophenoxy)methyl)isoxazol-3-yl)oxy)ethyl)-N-methyl-cyclobutanamine hydrochloride] |  | 86.6 ± 16.8 nM | 5.5 ± 1.3 nM | 16 |  |  |  |  |  |  |
| CN(CCOc1cc(COc2ccc(F)c(F)c2)on1)C1CCC1.Cl [Compound 21, N-(2-((5-((3,4-Difluorophenoxy)methyl)isoxazol-3-yl)oxy)ethyl)-N-methylcyclobutanamine hydrochloride] |  | 153 ± 37 nM | 1.7 ± 0.3 nM | 90 |  |  |  |  |  |  |
| CN(CCOc1cc(COc2cc(F)cc(F)c2)on1)C1CCC1.Cl [Compound 22, N-(2-((5-((3,5-Difluorophenoxy)methyl)isoxazol-3-yl)oxy)ethyl)-N-methylcyclobutanamine hydrochloride] |  | 57 ± 20.1 nM | 2.4 ± 1.2 nM | 24 | > 10000 nM | preferable neurite outgrowth effects compared to the parent compound 7 and positive control RC-33; also recorded: significant neuritogenesis effects | 2880 nM |  |  |  |
| CN(CCOc1cc(COc2ccc(Cl)c(Cl)c2)on1)C1CCC1.Cl [Compound 23, N-(2-((5-((3,4-Dichlorophenoxy)methyl)isoxazol-3-yl)oxy)ethyl)-N-methylcyclobutanamine hydrochloride] |  | 36 ± 9.7 nM | 3.2 ± 1.6 nM | 11 |  |  |  |  |  |  |
| CN(CCOc1cc(COc2cc(Cl)cc(Cl)c2)on1)C1CCC1.Cl [Compound 24, N-(2-((5-((3,5-Dichlorophenoxy)methyl)isoxazol-3-yl)oxy)ethyl)-N-methylcyclobutanamine hydrochloride] |  | 22.8 ± 11.1 nM | 7.8 ± 3.2 nM | 3.0 | 1810 nM | preferable neurite outgrowth effects compared to the parent compound 7 and positive control RC-33; also recorded: significant neuritogenesis effects | 1610 nM | more than 10 fold | 4 fold |  |
| CN(CCOc1cc(COc2ccc(F)c(Cl)c2)on1)C1CCC1.Cl [Compound 25, N-(2-((5-((3-Chloro-4-fluorophenoxy)methyl)isoxazol-3-yl)oxy)ethyl)-N-methylcyclobutanamine hydrochloride] |  | 32 ± 6 nM | 1.3 ± 0.4 nM | 25 | > 10000 nM | preferable neurite outgrowth effects compared to the parent compound 7 and positive control RC-33; also recorded: significant neuritogenesis effects | 1780 nM |  |  |  |
| CN(CCOc1cc(COc2cccc(C(F)(F)F)c2)on1)C1CCC1.Cl [Compound 26, N-Methyl-N-(2-((5-((3-(trifluoromethyl)phenoxy)methyl)isoxazol-3-yl)oxy)ethyl)cyclobutanamine hydrochloride] |  | 38 ± 2 nM | 4 ± 1.2 nM | 9.5 |  | better efficacy than other mono-substituted compounds |  |  |  |  |
| Cc1cccc(OCc2cc(OCCN(C)C3CCC3)no2)c1.Cl [Compound 27, N-Methyl-N-(2-((5-((m-tolyloxy)methyl)isoxazol-3-yl)oxy)ethyl)cyclobutanamine hydrochloride] |  | 124 ± 68 nM | 4.2 ± 1.9 nM | 29.5 |  |  |  | 3 fold |  |  |
| Cl.c1ccc(OCc2cc(OCCNC3CCC3)no2)cc1 [Compound 28, N-(2-((5-(Phenoxymethyl)isoxazol-3-yl)oxy)ethyl)cyclobutanamine hydrochloride] |  | 198 ± 64 nM | 0.2 nM | 990 |  | preferable neurite outgrowth effects compared to the parent compound 7 and positive control RC-33; also recorded: significant neuritogenesis effects | 7100 nM |  |  |  |
| Cl.Clc1cccc(OCc2cc(OCCNC3CCC3)no2)c1 [Compound 29, N-(2-((5-((3-Chlorophenoxy)methyl)isoxazol-3-yl)oxy)ethyl)cyclobutanamine hydrochloride] |  | 64.5 ± 13.2 nM | 0.4 ± 0.1 nM | 161 | 1520 nM | preferable neurite outgrowth effects compared to the parent compound 7 and positive control RC-33; also recorded: significant neuritogenesis effects | 600 nM |  |  |  |
| Cl.c1ccc(OCc2cc(OCCN(C3CCC3)C3CCC3)no2)cc1 [Compound 30, N-Cyclobutyl-N-(2-((5-(phenoxymethyl)isoxazol-3-yl)oxy)ethyl)cyclobutanamine hydrochloride] |  | 53.5 ± 0.5 nM | 16 ± 5 nM | 3.3 |  |  |  |  |  |  |
| CCCN(CCC)CCc1ccc(OC)c(OCCc2ccccc2)c1 [NE-100] | 1.03 nM |  |  |  |  |  |  |  |  | 212 nM |
| O=C(OCCN1CCOCC1)C1(c2ccccc2)CCCCC1 [PRE-084] |  |  |  |  |  |  |  |  |  | > 10000 nM |
